This note sets out measurements from patent US20170210723A1, “MOLECULES HAVING PESTICIDAL UTILITY, AND INTERMEDIATES, COMPOSITIONS, AND PROCESSES, RELATED THERETO” (priority 2016, published 2017).

What all share (type): in vivo
The subject of data set [1] is Yellow Fever Mosquito (Aedes aegypti). Put plainly: Bioassays on Yellow Fever Mosquito larvae, 96-well plate. The note with it: from 4000 ppm DMSO master plate, about 1 day-old larvae, 3 days. Summed up: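 Aedes aegypti larvae about 1 day old, in water with liver powder, exposed in 96-well plates to compounds from a 4000 ppm DMSO master solution diluted in 90:10 water:acetone. Plates covered and held at room temperature for 3 days, then each well scored for mortality; 6 replicate plates.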

The test system of data set [2] is Cabbage Looper (Trichoplusia ni). Kind of data set: Bioassays on CL, 128-well diet tray assay. The note with it: Trichoplusia ni, 168 h; 50 μg/cm^2 on artificial diet, second instar larvae, five to seven days; read-out: CL % Control (or Mortality) rating. Summed up:
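Test molecule at 50 μg/cm^2 applied to the artificial diet surface (acetone-water) and dried; one to five second-instar T. ni larvae per well, eight wells per treatment, held at 25° C., 14:10 light-dark for five to seven days. Percent mortality averaged over wells.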

The subject of data set [3] is Beet Armyworm (Spodoptera exigua). Put plainly: Bioassays on BAW, 128-well diet tray assay. The note with it: Spodoptera exigua, 168 h; 50 μg/cm^2 on artificial diet, second instar larvae, five to seven days; read-out: BAW % Control (or Mortality) rating.

One may read the mortality as the share of the test organisms that died. Consider `CC(C)SC[C@@H](C)NC(=O)c1ccc(/C=C/C(c2cc(Cl)c(Cl)c(Cl)c2)C(F)(F)F)cc1C(F)(F)F` (stereo partly drawn) [F86, N-((R)-1-(Isopropylthio)propan-2-yl)-4-((E)-4,4,4-trifluoro-3-(3,4,5-trichlorophenyl)but-1-en-1-yl)-2-(trifluoromethyl) benzamide], for which the “YFM % Control (or Mortality) rating” value in data set [1] is “A (80-100)”. Also, the mortality at 50 µg/cm2 in data set [2] and in data set [3] was 50 to 100% throughout.

Turning to `CC(C)C[S+]([O-])C[C@@H](C)NC(=O)c1ccc(/C=C/C(c2cc(Cl)c(Cl)c(Cl)c2)C(F)(F)F)cc1C(F)(F)F` (stereo partly drawn) [F87, N-((2R)-1-(Isobutylsulfinyl)propan-2-yl)-4-((E)-4,4,4-trifluoro-3-(3,4,5-trichlorophenyl)but-1-en-1-yl)-2-(trifluoromethyl)benzamide], the “YFM % Control (or Mortality) rating” value in data set [1] is “A (80-100)”. The mortality at 50 µg/cm2 in data set [2] and in data set [3] was 50 to 100% each time.

Consider `C[C@H](CSCC(F)(F)F)NC(=O)c1ccc(/C=C/C(c2cc(Cl)cc(Cl)c2)C(F)(F)F)cc1C(F)(F)F` (stereo partly drawn) [F88, 4-((E)-3-(3,5-Dichlorophenyl)-4,4,4-trifluorobut-1-en-1-yl)-N—((R)-1-((2,2,2-trifluoroethyl)thio)propan-2-yl)-2-(trifluoromethyl)benzamide], for which the “YFM % Control (or Mortality) rating” value in data set [1] is listed as “A (80-100)”. Moreover, the mortality at 50 µg/cm2 in data set [2] and in data set [3] was 50 to 100% each time.

As to `Cc1cc(/C=C/C(c2cc(Cl)cc(Cl)c2)C(F)(F)F)ccc1C(=O)N[C@H](C)CSCC(F)(F)F` (stereo partly drawn) [F89, 4-((E)-3-(3,5-Dichlorophenyl)-4,4,4-trifluorobut-1-en-1-yl)-2-methyl-N—((R)-1-((2,2,2-trifluoroethyl)thio)propan-2-yl)benzamide], the “YFM % Control (or Mortality) rating” value in data set [1] was “A (80-100)”. Also, the mortality at 50 µg/cm2 in data set [2] and in data set [3] was 50 to 100% in each case.

With `C[C@H](C[S+]([O-])CC(F)(F)F)NC(=O)c1ccc(/C=C/C(c2cc(Cl)cc(Cl)c2)C(F)(F)F)cc1C(F)(F)F` (stereo partly drawn) [F90, 4-((E)-3-(3,5-Dichlorophenyl)-4,4,4-trifluorobut-1-en-1-yl)-N-((2R)-1-((2,2,2-trifluoroethyl)sulfinyl)propan-2-yl)-2-(trifluoromethyl)benzamide], in data set [1], the “YFM % Control (or Mortality) rating” value is “A (80-100)”. Further, the mortality at 50 µg/cm2 in data set [2] and in data set [3] was 50 to 100% each time.

As to `Cc1cc(/C=C/C(c2cc(Cl)cc(Cl)c2)C(F)(F)F)ccc1C(=O)N[C@H](C)C[S+]([O-])CC(F)(F)F` (stereo partly drawn) [F91, 4-((E)-3-(3,5-Dichlorophenyl)-4,4,4-trifluorobut-1-en-1-yl)-2-methyl-N-((2R)-1-((2,2,2-trifluoroethyl)sulfinyl)propan-2-yl)benzamide], the “YFM % Control (or Mortality) rating” value in data set [1] is on record as “A (80-100)”. For the same molecule, the mortality at 50 µg/cm2 in data set [2] and in data set [3] was 50 to 100% each time.

For the molecule `Cc1cc(/C=C/C(c2cc(Cl)cc(Cl)c2)C(F)(F)F)ccc1C(=O)N[C@H](C)CS(=O)(=O)CC(F)(F)F` (stereo partly drawn) [F92, 4-((E)-3-(3,5-Dichlorophenyl)-4,4,4-trifluorobut-1-en-1-yl)-2-methyl-N—((R)-1-((2,2,2-trifluoroethyl)sulfonyl)propan-2-yl)benzamide], the “YFM % Control (or Mortality) rating” value in data set [1] is given as “A (80-100)”. For the same molecule, the mortality at 50 µg/cm2 in data set [2] and in data set [3] was 50 to 100% in each case.

Regarding `C[C@H](CS(=O)(=O)CC(F)(F)F)NC(=O)c1ccc(/C=C/C(c2cc(Cl)cc(Cl)c2)C(F)(F)F)cc1C(F)(F)F` (stereo partly drawn) [F93, 4-((E)-3-(3,5-Dichlorophenyl)-4,4,4-trifluorobut-1-en-1-yl)-N—((R)-1-((2,2,2-trifluoroethyl)sulfonyl)propan-2-yl)-2-(trifluoromethyl)benzamide], in data set [1], the “YFM % Control (or Mortality) rating” value is recorded as “A (80-100)”. For the same molecule, the mortality at 50 µg/cm2 in data set [2] and in data set [3] was 50 to 100% throughout.

As to `C[C@H](C[S+]([O-])CC(F)(F)F)NC(=O)c1ccc(/C=C/C(c2cc(Cl)cc(Cl)c2)C(F)(F)F)cc1Cl` (stereo partly drawn) [F94, 2-Chloro-4-((E)-3-(3,5-dichlorophenyl)-4,4,4-trifluorobut-1-en-1-yl)-N-((2R)-1-((2,2,2-trifluoroethyl)sulfinyl)propan-2-yl)benzamide], in data set [1], the “YFM % Control (or Mortality) rating” value is recorded as “A (80-100)”. The mortality at 50 µg/cm2 in data set [2] and in data set [3] was 50 to 100% each time.

For the molecule `C[C@H](CS(=O)(=O)CC(F)(F)F)NC(=O)c1ccc(/C=C/C(c2cc(Cl)cc(Cl)c2)C(F)(F)F)cc1Cl` (stereo partly drawn) [F95, 2-Chloro-4-((E)-3-(3,5-dichlorophenyl)-4,4,4-trifluorobut-1-en-1-yl)-N—((R)-1-((2,2,2-trifluoroethyl)sulfonyl)propan-2-yl)benzamide], in data set [1], the “YFM % Control (or Mortality) rating” value is “A (80-100)”. The mortality at 50 µg/cm2 in data set [2] and in data set [3] was 50 to 100% each time.

Regarding `C[C@H](CCSCC(F)(F)F)NC(=O)c1ccc(/C=C/C(c2cc(Cl)c(Cl)c(Cl)c2)C(F)(F)F)cc1C(F)(F)F` (stereo partly drawn) [F96, 4-((E)-4,4,4-Trifluoro-3-(3,4,5-trichlorophenyl)but-1-en-1-yl)-N—((R)-4-((2,2,2-trifluoroethyl)thio)butan-2-yl)-2-(trifluoromethyl)benzamide], in data set [1], the “YFM % Control (or Mortality) rating” value is given as “A (80-100)”. The mortality at 50 µg/cm2 in data set [2] and in data set [3] was 50 to 100% each time.

In the case of `Cc1cc(/C=C/C(c2cc(Cl)c(Cl)c(Cl)c2)C(F)(F)F)cc(F)c1C(=O)N[C@H](C)CSCC(F)(F)F` (stereo partly drawn) [F97, 2-Fluoro-6-methyl-4-((E)-4,4,4-trifluoro-3-(3,4,5-trichlorophenyl)but-1-en-1-yl)-N—((R)-1-((2,2,2-trifluoroethyl)thio)propan-2-yl)benzamide], the “YFM % Control (or Mortality) rating” value in data set [1] is reported as “A (80-100)”. The mortality at 50 µg/cm2 in data set [2] and in data set [3] was 50 to 100% each time.

For `Cc1cc(/C=C/C(c2cc(Cl)c(Cl)c(Cl)c2)C(F)(F)F)cc(F)c1C(=O)N[C@H](C)CS(=O)(=O)CC(F)(F)F` (stereo partly drawn) [F98, 2-Fluoro-6-methyl-4-((E)-4,4,4-trifluoro-3-(3,4,5-trichlorophenyl)but-1-en-1-yl)-N—((R)-1-((2,2,2-trifluoroethyl)sulfonyl)propan-2-yl)benzamide], in data set [1], the “YFM % Control (or Mortality) rating” value is “A (80-100)”. In addition, the mortality at 50 µg/cm2 in data set [2] and in data set [3] was 50 to 100% each time.

In the case of `Cc1cc(/C=C/C(c2cc(Cl)c(Cl)c(Cl)c2)C(F)(F)F)cc(F)c1C(=O)N[C@H](C)C[S+]([O-])CC(F)(F)F` (stereo partly drawn) [F99, 2-Fluoro-6-methyl-4-((E)-4,4,4-trifluoro-3-(3,4,5-trichlorophenyl)but-1-en-1-yl)-N-((2R)-1-((2,2,2-trifluoroethyl)sulfinyl)propan-2-yl)benzamide], the “YFM % Control (or Mortality) rating” value in data set [1] is “A (80-100)”. The mortality at 50 µg/cm2 in data set [2] and in data set [3] was 50 to 100% each time.

For the molecule `C[C@H](CSCC(F)(F)F)NC(=O)c1ccc(/C=C/C(c2cc(Cl)c(Cl)c(C=O)c2)C(F)(F)F)cc1C(F)(F)F` (stereo partly drawn) [F100, 4-((E)-3-(3,4-Dichloro-5-formylphenyl)-4,4,4-trifluorobut-1-en-1-yl)-N—((R)-1-((2,2,2-trifluoroethyl)thio)propan-2-yl)-2-(trifluoromethyl)benzamide], the “YFM % Control (or Mortality) rating” value in data set [1] is reported as “B (More than 0-Less than 80)”. Further, the mortality at 50 µg/cm2 in data set [2] and in data set [3] was 50 to 100% in each case.

As to `C=CCSC[C@@H](C)NC(=O)c1ccc(/C=C/C(c2cc(Cl)c(Cl)c(Cl)c2)C(F)(F)F)cc1C(F)(F)F` (stereo partly drawn) [F101, N—((R)-1-(Allylthio)propan-2-yl)-4-((E)-4,4,4-trifluoro-3-(3,4,5-trichlorophenyl)but-1-en-1-yl)-2-(trifluoromethyl)benzamide], the “YFM % Control (or Mortality) rating” value in data set [1] is “A (80-100)”. The mortality at 50 µg/cm2 in data set [2] and in data set [3] was 50 to 100% in each case.

In the case of `C=CCS(=O)(=O)C[C@@H](C)NC(=O)c1ccc(/C=C/C(c2cc(Cl)c(Cl)c(Cl)c2)C(F)(F)F)cc1C(F)(F)F` (stereo partly drawn) [F102, N—((R)-1-(Allylsulfonyl)propan-2-yl)-4-((E)-4,4,4-trifluoro-3-(3,4,5-trichlorophenyl)but-1-en-1-yl)-2-(trifluoromethyl)benzamide], in data set [1], the “YFM % Control (or Mortality) rating” value is “A (80-100)”. Also, the mortality at 50 µg/cm2 in data set [2] and in data set [3] was 50 to 100% each time.

With `C=CC[S+]([O-])C[C@@H](C)NC(=O)c1ccc(/C=C/C(c2cc(Cl)c(Cl)c(Cl)c2)C(F)(F)F)cc1C(F)(F)F` (stereo partly drawn) [F103, N-((2R)-1-(Allylsulfinyl)propan-2-yl)-4-((E)-4,4,4-trifluoro-3-(3,4,5-trichlorophenyl)but-1-en-1-yl)-2-(trifluoromethyl)benzamide], in data set [1], the “YFM % Control (or Mortality) rating” value is reported as “A (80-100)”. Also, the mortality at 50 µg/cm2 in data set [2] and in data set [3] was 50 to 100% throughout.

In the case of `C[C@H](CSCC(F)(F)F)NC(=O)c1ccc(/C=C/C(c2cc(Cl)cc(Cl)c2)C(F)(F)F)cc1Cl` (stereo partly drawn) [F104, 2-Chloro-4-((E)-3-(3,5-dichlorophenyl)-4,4,4-trifluorobut-1-en-1-yl)-N—((R)-1-((2,2,2-trifluoroethyl)thio)propan-2-yl)benzamide], the “YFM % Control (or Mortality) rating” value in data set [1] is “A (80-100)”. The mortality at 50 µg/cm2 in data set [2] and in data set [3] was 50 to 100% throughout.
